# Assays:
# Type in all cases: in vivo
# [1] = tested on: mast cell degranulation induced by Compound 48/80; experiment: Rat skin model: inhibition of Compound 48/80-induced mast cell degranulation (capillary permeability, trypan blue); details: 0.15 μg Compound 48/80; for % Degranulation: percent mast cell degranulation produced by 48/80, 100 nanomoles peptide
# Procedure: The Rat Skin Model for Determination of Inhibition of Mast Cell Degranulation
# In this model, the blood plasma of the experimental rat is labeled with the dye trypan blue. This soluble dye is carried in the bloodstream as a passive marker of plasma itself, and is excluded from live cells. Intact blood vessels, including the capillary system, retain this dye under normal circumstances. A compound, which induces degranulation of mast cells (resulting in leukotriene and histamine release), is injected into the skin to simulate allergen-induced degranulation. In these experiments, Compound 48/80 was used for this purpose. In the events following leukotriene and histamine release, capillary permeability is increased, and plasma, dyed blue, leaks from capillaries and dyes the skin surrounding the injection site blue. The area of bluing is a measure of the amount of Compound 48/80 injected.
# A compound can be tested for “anti-leukotriene” and/or “anti-histamine” activity by mixing it with Compound 48/80 prior to injection.
# The rat skin model was undertaken and validated. Various peptides were tested at a predetermined dose for anti-leukotriene and/or anti-histamine activity. The dose selected allowed a general comparison to f-Met-Leu-Phe, which was standard compound for comparison.
# A “dose response” titration was performed for some compounds and compared with the standard compound. Observing serial decreases in the size areas of capillary permeability using serially smaller doses of the putative inhibitory compound validates the inhibition of leukotriene and/or histamine release observed in the initial predetermined dose test.
# Reagents were obtained from Sigma or Aldrich, with the exception of ketamine, a veterinary anaesthetic that was obtained from various veterinary suppliers. The rats used were male Sprague-Dawley breed, 220-240 g at time of purchase from B&K International.
# For the rat skin reaction, rats were anaesthetized with 0.25 ml 10 mg/ml ketamine. 1.0 ml trypan blue in saline (sterile filtered) was administered in a tail vein, and the back of the rat was shaved. Four intradermal injection sites per rat were used for test and control injections.
# Compound 48/80 was prepared as a 1.5 mg/ml stock solution in saline. […] Serial dilutions in saline to working levels were prepared just prior to injection of each rat.
# Peptides were prepared as a 23 mM stock solution in DMSO, and stored at −20° C. between experiments. At the time of use, the frozen stock solutions were thawed, and appropriate aliquots added to dilutions of Compound 48/80, along with appropriate amounts of DMSO, to result in the ratio of 5 μl DMSO to 0.1 ml aqueous Compound 48/80.
# For injections, 0.1 ml […], +1/− test compounds were injected intradermally into anaesthetized, dyed, and shaved rats. Following a 15 minute incubation, the rats were sacrificed by cervical dislocation and the back skin was evulsed and placed on a light box. An image of the backlit skin was digitized using a CCD video capture camera and compatible hardware/software. The digitized image was analyzed using a scientific graphics analysis software package, and the areas of capillary permeability (bluing) were integrated and digital values were obtained for further analysis.
# A dose response curve was generated using Compound 48/80 at various doses from ca. 0.01 μg through ca. 15 μg. […] A dose of 0.15 μg of Compound 48/80 was selected for conducting further tests.
# Several f-Met-Leu peptides were tested for inhibition of induced degranulation in the rat skin model using 100 nanomoles of the test peptide and a dose of 0.15 μg Compound 48/80. An intrinsic zero-peptide-dose 48/80 control was included in each rat for each experiment, and the % of inhibition was expressed in relative terms to this control (0% inhibition). The percent mast cell degranulation produced by 48/80 was also determined.
# [2] = tested on: OVA-sensitized/challenged mice; experiment: OVA-induced bronchial asthma mouse model (Standard/Resolution protocols, 1-3 month), airway eosinophils and mucus plugs
# Source text: The OVA-induced Bronchial Asthma Mouse Model for Inhibition of Mast Cell Degranulation
# Reagents: Crystalline OVA was obtained from Pierce Chem. Co. (Rockford, Ill.) aluminum potassium sulfate (alum) from Sigma Chem. Co. (St. Louis, Mo.), pyrogen-free distilled water from Baxter, Healthcare Corporation (Deerfield, Ill.), 0.9% sodium chloride (normal saline) from Lymphomed (Deerfield, Ill.) and Trappsol™ HPB-L100 (aqueous hydroxypropyl beta cyclodextrin; 45 wt/vol % aqueous solution) from Cyclodextrin Technologies Development, Inc. (Gainesville, Fla.). The OVA (500 μg/ml in normal saline) was mixed with equal volumes of 10% (wt/vol) alum in distilled water. The mixture (pH 6.5 using 10 N NaOH) after incubation for 60 minutes at room temperature underwent centrifugation at 750 g for 5 minutes; the pellet was resuspended to the original volume in distilled water and used within one hour.
# The selective 5-lipoxtgenase inhibitor, Zileuton (N-[1-benzo[b]thien-2-ylethyl]-N-hydroxyurea; J. Pharmacol Exp Ther. 1991; 256: 929-937), was kindly provided by Drs. Bell and George W. Carter (Abbott Laboratories, Abbott Part, Ill.). Zileuton was dissolved in Trappsol.™. Histatek, Inc. (Seattle, Wash.) provided the mast cell degranulation inhibitor, f-Met-Leu-Phe-Phe (“HK-X”).
# Female BALB/c […] (6-8 wk of age at purchase; D and K, Seattle Wash.) were housed under conventional conditions for the studies.
# Allergen Immunization/Challenge Protocols: Mice received an i.p. injection of 0.2 ml (100 μg) of OVA with alum on the different protocols of Standard (FIG. 5A) and Resolution (FIG. 5B) (J. Exp Med. 1996; 184: 1483-1494). According to the different protocols, mice were anesthetized with 0.2 ml i.p. of ketamine (0.44 mg/ml)/xylazine (6.3 mg/ml) in normal saline before receiving an intranasal (i.n.) does of 100 μg OVA in 0.05 ml normal saline and an i.n. dose of 50 μg OVA in 0.05 ml normal saline separately on different days. Two control groups were used. Accordingly, the first group received normal saline with alum i.p. and normal saline without alum i.n.; the second group received OVA with alum i.p., OVA without alum i.n., and normal saline, alone.
# The trachea and left lung (the right lung is used for bronchoalveolar lavage (“BAL”)) were obtained and fixed in 10% neutral formaldehyde solution at room temperature for 6˜15 h. After being embedded in paraffin, the tissues were cut into 5-um sections and processed with the different staining or immunolabling further. Discombe's eosinophil staining was used for counting the cell numbers with the counterstain of methylene blue. The eosinophil number per unit airway area (2,200 μm^2) was determined by morphometry (J. Pathol. 1992; 166: 395-404; Am Rev Respir Dis. 1993; 147:448-456). Fibrosis was identified with the Masson's trichrome staining. Airway mucus was identified by the following staining method: methylene blue, hematoxylin and eosin, mucicarmine, alcian blue, and alcian blue/periodic acid-Schiff (PAS) reaction (Troyer, H., “Carbohydrates” in Principles and Techniques of Histochemistry, Little, Brown and Company, Boston, Mass., 1980: 89-121; Sheehan, D. C., et al., “Carbohydrates” in Theory and Practice of Histotechnology, Battle Press, Columbus, Ohio, 1980: 159-179) Mucin was stained with mucicarmine solution; metanil yellow counterstain was employed. Acidic mucin and sulfated mucosubstances were stained with alcian blue, pH 2.5; nuclear fast red counterstain was used. Neutral and acidic mucosubstances were identified by alcian blue, pH 2.5, and PAS reaction. The degree of mucus plugging of the airways (0.5-0.8 mm in diameter) was also assessed by morphometry. The percent occlusion of airway diameter by mucus was classified on a semiquantitative scale from 0 to 4+ as described in Figure Legends. The histologic and morphometric analyses were performed by individuals blinded to the protocol design. […]
# [3] = tested on: OVA-sensitized/challenged mice; experiment: OVA allergen-induced airway inflammation mouse model, 28-day protocol, HK-X i.n. before each challenge; details: p<0.004; FIG. 11
# Source text: The above-described murine model reproduces key features of human asthma. Late-phase allergen-specific pulmonary disease was induced in normal BALB/c mice using ovalbumin (OVA) as allergen. One protocol includes immunization of mice with i.p. OVA on […] and 14, and intranasal (i.n.) administration of OVA on days 14, 25, 26, and 27.
# In a mouse model of allergen-induced airway inflammation, the role of mast cell in airway eosinophil infiltration, mucus release, and hyper-responsiveness to methacholine was examined.
# Materials were used as described above. Mice received an i.p. injection of 0.2 ml (100 ug) of OVA complexed with aluminum potassium sulfate (alum) on day 0 and 14. On days 14, 25, 26, and 27, mice were anesthetized with 0.2 ml i.p. of ketamine (0.44 mg/ml)/xylazine (6.3 mg/ml) in normal saline before receiving an intranasal (i.n.) dose of 100 ug OVA in 0.05 ml normal saline on days 25, 26, and 27. Lung tissue was obtained 24 hours after the last i.n. challenge on day 28. The control group received normal saline with alum i.p. on days 0 and 14 and normal saline without alum i.n. on days 14, 25, 26, and 27. To assess the effect of HK-X inhibition on OVA induced asthma, HK-X (10 ug/ml) was given i.n. 30 minutes before each i.n challenge on days 25, 26, and 27.
# After tying off the left lung at the mainstem bronchus, the right lung was […] three times with 0.4 ml of normal saline, Bronchoalveolar lavage (BAL) fluid cells from a 0.05 ml aliquot of the pooled sample were counted using a hemocytometer and the remaining fluid centrifuged at 4° C. for 10 minutes at 200 g. After resuspension of the cell pellet in normal saline containing 10% BSA, BAL cell smears were made on glass slides. To stain eosinophils, dried slides were stained with Discombe's diluting fluid (0.05% aqueous eosin and 5% (v/v) acetone in distilled water) for 5-8 minutes, rinsed with water for 0.5 minutes and counterstained with 0.07 methylene blue for 2 minutes.
# Following BAL, the trachea and left lung (upper and lower lobes) were obtained and fixed in 10% buffered formalin solution at 20° C. for1S hours. After the tissues were processed and embeded in paraffin, the tissues were cut into 5 μm sections and stained with Discombe's solution and counterstained with methylene blue as described above or stained with Hematoxylin and eosin. The eosinophil number per unit airway area (2200 μm^2) was determined by morphometry as previously described. Airway mucus was identified by a variety of staining methods, i.e., methylene blue, Hematoxylin and eosin, mucicarmine, toluidine blue, alcian blue, and alcian blue/periodic acid Schiff (PAS) reaction. Mucin was stained with mucicarmine solution; metanil yellow counterstain was employed. Mucin and sialic acid-rich non-sulfated mucosubstances were stained metachromatically with toluidine blue, pH 4.5. Acidic mucin and sulfated mucosubstances were stained with alcian blue, pH 2.5; nuclear fast red counterstain was used. Neutral and acidic mucosubstances were identified by alcian blue, pH 2.5 and PAS reaction. The degree of mucus plugging of the airways (0.5˜0.8 mm in diameter) also was assessed by morphometry. The percent occlusion of airway diameter by mucus was classified on a semiquantitative scale from 0 to +++++. The histologic and morphometric analyses protocol design were performed by individuals blinded to the protocol design.
# Mucus glycoproteins in BAL fluid were assayed by slot blotting and PAS staining as described. Nitrocellulose membranes (0.2 um pore size; Schleicher & Schuell, Keene, N.H.) were wetted in distilled water and then in normal saline before placement in a Minifold II 72-well slot blot apparatus (Schleicher & Schuell). The BAL fluid samples (0.05 ml) and aliquots (0.05-0.75 ml) of a stock solution (2 ug/ml) of human respiratory mucin glycoprotein were blotted onto the nitrocellulose membranes by water suction vacuum, and mucus glycoproteins were visualized by PAS reaction. […]
# [4] = tested on: OVA-sensitized/challenged mice; experiment: as above; details: p=0.0128 compared to OVA without zileuton; data not shown
compound,measurement,setting,value
"f-Met-Leu-Phe [Example 2, reference compound]","dose response, inhibition of degranulation induced by Compound 48/80","[1]; doses of 0 to about 230 nM peptide, FIG. 2 / FIG. 3",Inhibition of degranulation induced by Compound 48/80 was clearly shown
same,% Degranulation,[1],60%
N-acetyl-Met-Leu-Phe [Example 3],% Degranulation,[1],98%
"CC(c1cc2ccccc2s1)N(O)C(N)=O (stereo not shown) [Zileuton, N-[1-benzo[b]thien-2-ylethyl]-N-hydroxyurea, reference compound]",AIRWAY INFLUX OF EOSINOPHILS (%),[2]; 1 month,15.50%
same,AIRWAY INFLUX OF EOSINOPHILS (%),[2]; 2 month,11.66%
same,AIRWAY INFLUX OF EOSINOPHILS (%),[2]; 3 month,10.73%
same,% of plug of airway,[2]; 28 days,16%
same,PERCENTAGE OF EOSINOPHILS IN AIRWAY TISSUE,[2]; 28 days of treatment,15.8%
same,MUCUS PLUG SCORE IN AIRWAYS,"[2]; 28 days, semiquantitative scale 0 to 4+",1.3
same,reduction of airway eosinophils,[2]; through 1-3 month,could reduced eosinophils generally through 1-3 month
same,decrease in number of eosinophils in the BAL fluid,[3],82%
same,decrease in eosinophils recovered in the BAL fluid,[4],89%
f-Met-Leu-Tyr [Example 10],% Degranulation,[1],30%

# From patent US20030013658A1, “Small peptides and methods for treatment of asthma and inflammation” (Hisatek, LLC, priority 1997, published 2003)
